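Each compound was tested at five concentrations against cells in 96-well plates for 48 hours. GI50 marks 50% less growth. TGI denotes the concentration required for complete inhibition of growth.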
Tests used:
Assay in all cases: DTP human tumour cell line panel, 48 h
[1] = test system: HL-60(TB) leukemia
[2] = test system: EKVX NSCLC
[3] = test system: SNB-19 CNS
[4] = test system: U251 CNS
[5] = test system: HCT-15 colon
[6] = test system: SK-MEL-2 melanoma
[7] = test system: HS 578T breast
[8] = test system: HOP-62 NSCLC
[9] = test system: UACC-62 melanoma
[10] = test system: SK-MEL-5 melanoma
[11] = test system: HCC-2998 colon
[12] = test system: LOX IMVI melanoma
[13] = test system: PC-3 prostate
[14] = test system: A498 renal
[15] = test system: MOLT-4 leukemia
[16] = test system: BT-549 breast
[17] = test system: IGROV1 ovarian
[18] = test system: SNB-75 CNS
[19] = test system: 786-0 renal
[20] = test system: SF-295 CNS
[21] = test system: MCF7 breast
[22] = test system: OVCAR-5 ovarian
[23] = test system: RXF 393 renal
[24] = test system: K-562 leukemia
[25] = test system: SF-268 CNS
[26] = test system: TK-10 renal
[27] = test system: NCI-H226 lung
[28] = test system: KM12 colon
[29] = test system: NCI-H522 lung
[30] = test system: HOP-92 NSCLC
[31] = test system: NCI-H23 lung
[32] = test system: OVCAR-8 ovarian
[33] = test system: NCI/ADR-RES ovarian
[34] = test system: SF-539 CNS

COc1ccc(-c2nnc(COc3ccc(Cl)cc3Cl)o2)cc1OC
GI50 [1]: > 100 µM | TGI [1]: > 100 µM | GI50 [2]: 4.39 µM | TGI [2]: > 100 µM | GI50 [3]: 6.69 µM | TGI [3]: > 100 µM | GI50 [4]: 4.36 µM | TGI [4]: 17.6 µM | GI50 [5]: > 100 µM | TGI [5]: > 100 µM | GI50 [6]: 7.79 µM | TGI [6]: 37.5 µM | GI50 [7]: 3.73 µM | TGI [7]: 96.2 µM | GI50 [8]: 2.37 µM | TGI [8]: 7.9 µM | GI50 [9]: 3.35 µM | TGI [9]: > 100 µM | GI50 [10]: 3.27 µM | TGI [10]: > 100 µM | GI50 [11]: > 100 µM | TGI [11]: > 100 µM | GI50 [12]: 3.16 µM | TGI [12]: > 100 µM | GI50 [13]: 6.4 µM | TGI [13]: > 100 µM | GI50 [14]: 2.78 µM | TGI [14]: 7.22 µM | GI50 [15]: 8.3 µM | TGI [15]: > 100 µM | GI50 [16]: 16.9 µM | TGI [16]: 76.5 µM | GI50 [17]: 4.22 µM | TGI [17]: > 100 µM | GI50 [18]: 1.61 µM | TGI [18]: 3.36 µM | GI50 [19]: 1.8 µM | TGI [19]: 3.32 µM | GI50 [20]: 13.5 µM | TGI [20]: 70.6 µM | GI50 [21]: 5.45 µM | TGI [21]: > 100 µM | GI50 [22]: 3.53 µM | TGI [22]: > 100 µM | GI50 [23]: 2.14 µM | TGI [23]: 4.59 µM | GI50 [24]: > 100 µM | TGI [24]: > 100 µM | GI50 [25]: 5.95 µM | TGI [25]: 96.7 µM | GI50 [26]: 3.15 µM | TGI [26]: 6.61 µM | GI50 [27]: 3.42 µM | TGI [27]: 30.3 µM | GI50 [28]: > 100 µM | TGI [28]: > 100 µM | GI50 [29]: 3.28 µM | TGI [29]: 18.3 µM | GI50 [30]: 2.16 µM | TGI [30]: 4.91 µM | GI50 [31]: 6.18 µM | TGI [31]: > 100 µM | GI50 [32]: 4.02 µM | TGI [32]: > 100 µM | GI50 [33]: 3.44 µM | TGI [33]: > 100 µM | GI50 [34]: 5.52 µM | TGI [34]: 41.1 µM

Source: PubChem BioAssay (NCI)
